# Test results as given in PMC6522912, “Evaluation of the published kinase inhibitor set to identify multiple inhibitors of bacterial ATP-dependent mur ligases” (Journal of Enzyme Inhibition and Medicinal Chemistry, 2019).
# Read-outs that look alike come from different tables or passages of the source.
# Legend:
# E. coli MurD = E. coli MurD (Escherichia coli, UniProt P14900); assay: biochemical; conditions: for remaining activity at 100 µM: 0.25 h, Table S1, PKIS screening, read-out: RA [%] at 100 µM MurD; for IC50 / MurD RA [%]: Table 1; for IC50: read-out: MurD IC50; for LE (MurD): ligand efficiency, LE = (1.37 × pIC50)/HAC; for MurD RA [%]: residual activity at 100 µM compound
# Sequence of E. coli MurD (P14900 whole entry): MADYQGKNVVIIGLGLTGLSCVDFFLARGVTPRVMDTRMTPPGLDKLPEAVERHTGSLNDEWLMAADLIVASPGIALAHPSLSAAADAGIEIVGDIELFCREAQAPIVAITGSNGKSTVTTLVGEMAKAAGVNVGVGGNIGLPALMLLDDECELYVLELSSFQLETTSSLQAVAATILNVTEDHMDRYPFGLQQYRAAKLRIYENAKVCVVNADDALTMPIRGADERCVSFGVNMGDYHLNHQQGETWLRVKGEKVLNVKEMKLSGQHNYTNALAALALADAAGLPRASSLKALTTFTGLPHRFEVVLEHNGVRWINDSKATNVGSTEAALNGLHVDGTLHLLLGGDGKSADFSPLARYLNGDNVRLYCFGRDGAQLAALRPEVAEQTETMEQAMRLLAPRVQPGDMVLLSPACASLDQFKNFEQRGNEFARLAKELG
# Summary of the method: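 Orthophosphate released by E. coli MurD quantified by malachite green (Biomol green) absorbance at 650 nm after 15 min at 37 °C. Residual activity relative to DMSO-only controls.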
# E. coli MurF = E. coli MurF (Escherichia coli, UniProt P11880); assay: biochemical; conditions: for remaining activity at 100 µM: 0.25 h, Table S1, PKIS screening, read-out: RA [%] at 100 µM MurF; for IC50 / MurF RA [%]: Table 1; for LE (MurF): ligand efficiency, LE = (1.37 × pIC50)/HAC; for MurF RA [%]: residual activity at 100 µM compound
# Sequence of E. coli MurF (P11880 whole entry): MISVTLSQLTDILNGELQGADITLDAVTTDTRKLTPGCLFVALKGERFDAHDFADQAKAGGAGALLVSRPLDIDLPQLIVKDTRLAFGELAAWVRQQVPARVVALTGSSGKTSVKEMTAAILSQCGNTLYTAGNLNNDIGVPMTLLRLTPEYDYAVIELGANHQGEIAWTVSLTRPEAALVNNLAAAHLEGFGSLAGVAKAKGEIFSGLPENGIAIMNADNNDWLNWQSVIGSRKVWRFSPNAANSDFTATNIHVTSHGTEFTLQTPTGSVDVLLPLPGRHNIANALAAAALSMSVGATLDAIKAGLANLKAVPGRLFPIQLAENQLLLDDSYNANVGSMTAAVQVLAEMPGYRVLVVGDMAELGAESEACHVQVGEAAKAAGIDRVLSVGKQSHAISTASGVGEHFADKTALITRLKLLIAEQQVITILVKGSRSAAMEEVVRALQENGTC
# E. coli MurE = E. coli MurE (Escherichia coli, UniProt P22188); assay: Malachite green inhibition assay, MurE; type: biochemical; conditions: for IC50 / MurE RA [%]: Table 1; for IC50: read-out: MurE IC50; for MurE RA [%]: residual activity at 100 µM compound
# Sequence of E. coli MurE (P22188 whole entry): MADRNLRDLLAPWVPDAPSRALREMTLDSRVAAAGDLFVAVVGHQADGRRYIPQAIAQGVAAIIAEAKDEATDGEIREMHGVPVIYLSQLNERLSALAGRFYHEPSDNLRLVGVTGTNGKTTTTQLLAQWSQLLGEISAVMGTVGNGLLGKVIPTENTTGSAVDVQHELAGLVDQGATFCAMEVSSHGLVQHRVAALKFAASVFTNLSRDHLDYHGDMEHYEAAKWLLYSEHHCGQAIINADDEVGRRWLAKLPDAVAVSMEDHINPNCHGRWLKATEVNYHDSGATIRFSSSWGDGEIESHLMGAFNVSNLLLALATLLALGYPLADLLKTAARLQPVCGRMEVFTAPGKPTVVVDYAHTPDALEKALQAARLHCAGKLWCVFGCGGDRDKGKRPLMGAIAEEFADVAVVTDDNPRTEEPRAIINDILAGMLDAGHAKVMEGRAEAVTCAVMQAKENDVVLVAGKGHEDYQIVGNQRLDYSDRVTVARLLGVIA
# Description: Inhibition of the Mur ligases was determined using the malachite green assay, with slight modifications.
# MurE: 50 mM Hepes, pH 8.0, 15 mM MgCl2, 0.005% Triton X-114, 60 µM meso-diaminopimelic acid, 100 µM uridine-5′-diphosphate-N-acetylmuramoyl-L-alanine-D-glutamate, 1000 µM ATP, and purified E. coli MurE[27].
# In all cases, the final concentration of DMSO was 5% (v/v). After incubation for 15 min at 37 °C, the enzyme reaction was terminated by addition of 100 µM Biomol green reagent, and the absorbance was measured at 650 nm after 5 min. All of the experiments were run in duplicate. Residual activities were calculated with respect to control assays without the tested compounds, but with the 5% DMSO carrier.
# The published kinase inhibitor set compounds were evaluated for inhibition of MurC, D and F ligases from E. coli using the Malachite green assay, which detects orthophosphate generated during enzymatic reactions. To avoid non-specific inhibition due to aggregate formation, all of the compounds were tested in the presence of detergent (0.005% Triton-X114). The data are presented as the residual activities of these Mur ligases in the presence of 100 µM of each test compound (Supporting Information Table S1). […]. The IC50 values against MurC, D, E and F were determined for the selected hit compounds – one representative compound from each structural class was chosen: compound 1[33], aza-stilbene derivative; compound 2[34], alkynyl pyrimidine; compound 3[35], pyrazolo [1,5]-b]pyridazine; compound 4[36], phenoxypyrimidine; compound 5[37], 4,6-bis-anilino-1H-pyrrolo[2,3-pyrimidine (Table 1). […]. […] Among the hits, compounds for further mechanistic studies were chosen on the basis of their ligand efficiency. Ligand efficiency quantifies the molecular properties, particularly size and lipophilicity and is used as a selection criterion for structurally different compounds as more ‘efficient’ ligands have the potential to control for the inflation of these properties[38] Thus ligand efficiencies were calculated for the four hits (Supporting Information Table S2)[39]^,[40], and compound 1 was selected as the most promising for additional studies. Additionally, regarding the data of profiled compounds in large panels of human kinase assays[41] […] To provide sufficient amounts of compound 1 for kinetic and NMR studies, it was resynthesized according to the synthetic procedures (Figure 2) described in the literature.
# human kinases = conditions: over 200 kinase activity assays and 68 DSF assays; cited from earlier work
# E. coli MurC = E. coli MurC (Escherichia coli, UniProt P17952); assay: Malachite green inhibition assay, MurC; type: biochemical; conditions: for remaining activity at 100 µM: 0.25 h; for IC50 / MurC RA [%]: Table 1; for IC50: read-out: MurC IC50; for MurC RA [%]: residual activity at 100 µM compound
# Sequence of E. coli MurC (P17952 whole entry): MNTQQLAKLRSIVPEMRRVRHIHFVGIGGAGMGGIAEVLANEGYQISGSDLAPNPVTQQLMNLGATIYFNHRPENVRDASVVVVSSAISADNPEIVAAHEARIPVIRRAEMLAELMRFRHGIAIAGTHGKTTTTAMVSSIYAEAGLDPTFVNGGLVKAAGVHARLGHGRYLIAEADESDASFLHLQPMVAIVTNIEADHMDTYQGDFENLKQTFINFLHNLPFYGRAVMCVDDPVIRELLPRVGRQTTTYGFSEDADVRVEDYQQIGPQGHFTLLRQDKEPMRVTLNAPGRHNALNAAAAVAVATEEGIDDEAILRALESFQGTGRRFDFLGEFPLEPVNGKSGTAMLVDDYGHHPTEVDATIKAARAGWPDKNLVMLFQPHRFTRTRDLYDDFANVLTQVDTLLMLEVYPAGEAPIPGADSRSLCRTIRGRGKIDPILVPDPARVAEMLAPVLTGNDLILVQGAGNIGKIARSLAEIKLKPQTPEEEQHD
# [1] = system: Staphylococcus aureus (ATCC 29213); assay: Antimicrobial testing, broth microdilution; type: cell-based; conditions: ATCC29213, positive control, 20 h, 37 °C
# Description: (§1) Antimicrobial testing was performed by the broth microdilution method in 96-well plates following the Clinical and Laboratory Standards Institute guidelines[29] and European Committee on Antimicrobial Susceptibility Testing recommendations. Bacterial suspensions equivalent to 0.5 McFarland turbidity standard were diluted with cation-adjusted Mueller–Hinton broth with TES buffering (ThermoFisher Scientific), for a final inoculum of 10^5 CFU/mL. The compounds dissolved in DMSO and the inoculum were mixed together and incubated for 20 h at 37 °C. […] The MICs were determined against Staphylococcus aureus (ATCC 29213) and E. coli (ATCC 25922) bacterial strains. Tetracycline was used as the positive control on every assay plate, with MICs of 0.5 and 1 µg/mL for S. aureus and E. coli, respectively.
# E. coli (ATCC 25922) = assay: Antimicrobial testing, broth microdilution; type: cell-based; conditions: Escherichia coli, ATCC25922; positive control; 20 h, 37 °C
# Description: as §1
# [2] = read-out: RA [%] at 100 µM MurC, Table S1, PKIS screening
# [3] = Table S1, PKIS screening, read-out: RA [%] at 100 µM MurC
Structure (SMILES),remaining activity at 100 µM (E. coli MurD) [%],IC50 (E. coli MurD) [µM],LE (MurD) (E. coli MurD),MurD RA [%] (E. coli MurD),remaining activity at 100 µM (E. coli MurF) [%],IC50 (E. coli MurF) [µM],LE (MurF) (E. coli MurF),MurF RA [%] (E. coli MurF),IC50 (E. coli MurE) [µM],MurE RA [%] (E. coli MurE),activity at human kinases (human kinases),remaining activity at 100 µM (E. coli MurC; [2]) [%],IC50 (E. coli MurC) [µM],MurC RA [%] (E. coli MurC),remaining activity at 100 µM (E. coli MurC; [3]) [%],residual activity printed in column IC50 MurD (E. coli MurD; Table S2) [%],residual activity printed in column IC50 MurF (E. coli MurF; Table S2) [%],residual activity printed in column IC50 MurE (E. coli MurE; Table S2) [%],MIC [1] [µg/mL],MIC (E. coli (ATCC 25922)) [µg/mL]
N#Cc1ccc(Oc2nccc(-c3c(-c4ccc(F)cc4)ncn3C3CCNCC3)n2)cc1 [Compound 4],27,63,0.17,27,19,95,0.17,51,139,56,no appreciable activity,48,90,48,,,,,,
CCCN1CCCC(c2ccc(Nc3nc(Nc4cc(F)ccc4C(N)=O)c4cc[nH]c4n3)c(OC)c2)C1 (stereo not shown) [Compound 5],10,32,0.16,10,16,66,0.15,16,58,26,appreciable activity,,62,29,29,,,,,
COc1ccc(-c2nn3ncccc3c2-c2ccnc(Nc3cccc(C(F)(F)F)c3)n2)cc1 [Compound 3],80,,,83,35,,,100,,84,,10,74,10,,83,100,84,,
CN(C)[C@@H]1C(O)=C(C(N)=O)C(=O)[C@@]2(O)C(O)=C3C(=O)c4c(O)cccc4[C@@](C)(O)[C@H]3C[C@@H]12 [Tetracycline],,,,,,,,,,,,,,,,,,,0.5,1
Nc1ccc(C#Cc2cncnc2Nc2ccc(OCc3cccc(F)c3)c(Cl)c2)cc1 [Compound 2],51,104,0.17,51,30,39,0.19,30,157,50,no appreciable activity,,62,43,43,,,,,
N#Cc1cccc(Nc2ncc(-c3ccccc3)o2)c1 [GW627834A],75,,,,85,,,,,,,,,,78,,,,,
c1cc(-c2cnn3nc(N4CCOCC4)ccc23)nc(NC2CC2)n1 [GW708336X],92,,,,98,,,,,,,,,,98,,,,,
CS(=O)(=O)CCNCc1nc(-c2ccc3ncnc(Nc4ccc(F)c(Cl)c4)c3c2)cs1 [GW461104A],73,,,,84,,,,,,,,,,88,,,,,
O=C1Nc2ccccc2/C1=C1\CCc2cc(O)ccc21 [GR105659X],100,,,,100,,,,,,,,,,85,,,,,
Fc1ccc(-c2ncn(CCCN3CCOCC3)c2-c2ccncc2)cc1 [SB-210313],91,,,,100,,,,,,,,,,100,,,,,
